The numbers were not newly measured in patent EP2837390A1, “Combined Pharmaceutical Preparation for Use in Treating Neuromuscular Disorders” (Universitäts-Kinderspital beider Basel, priority 2013, dated 2015), which cites them from elsewhere.

The test system of the series is mdx mice model. To be noted: long term supplementation for 17-months.

Each structure is given as a SMILES string.

In the case of `N=C(N)NCCC[C@H](N)C(=O)O` [L-arginine], the muscle fibrosis result was “increased”, the muscle function result is “worsened” and the skeletal deformities result was “increased”.
